Assays:
Steinernema siamkayai [1] = assay: Nematode pilot study fecundity (S3 Table 1); type: in vivo; details: inoculum 5 IJs
Source text: (§1) The attempt was made here to replicate prior fecundity work in another species of nematode, the entomopathogenic (insect slaying) Steinernema siamkayai. Species confirmation involved standard morphological and molecular techniques (S3 File, Nematodes). S. siamkayai is a biocontrol agent of potential economic significance in global agriculture, reducing the need for pesticides. Crucial for deployment is the production of ‘infective juveniles’. These forms penetrate the larvae of insect pests, releasing a bacterium, Xenorhabdus spp., which ultimately kills the larvae. Stock solutions (5 mg mL^-1) of EPL036 (IEPVFT) and EPL630 (KLKMNG) were made up and stored at −20 °C. Lipid Agar plates were prepared by pouring 5 ml media in 60 mm plastic Petri dishes. The plates were inoculated with an overnight-grown bacterial culture of Xenorhabdus spp. (10^9 cfu/ml) at 100 μl/plate and incubated at 28 °C for 24h. Xenorhabdus bacteria are symbiotically associated with S. siamkayai. While multiplying, Xenorhabdus metabolises the constituents of the lipid agar and the resulting by-products are the food supplement for the nematodes that triggers the worms to grow and multiply. From the stock solutions, peptides were introduced individually into the centre of the Lipid Agar plates with Xenorhabdus lawn. Two concentrations of peptide were used, 4 and 8 μL of the 5 mg mL^-1 stock peptide solutions (making 20 and 40 μg of peptide per plate in total, respectively, i.e. ~6 and ~12 μM). Each peptide solution was uniformly spread using an L shaped spreader and allowed to absorb into the agar plate for 10 minutes. Nematodes were harvested beforehand as follows. Third-stage infective juveniles (IJs) of S. siamkayai were used to infect fourth instar Galleria larvae. Following larval death, the Galleria cadavers were placed on a White’s Trap to harvest fresh progeny within 5–6 days. After storage in sterile water, these new-generation IJs were concentrated and inoculated on the bacterial plates on Day 1 at 500 and 1000 IJs /plate. The eight treatments (two inocula at two peptide concentrations) and two controls (two inocula without peptides) were replicated (x3) and incubated at 28 °C. Observations of behaviour and morphology were made at intervals throughout the study, then on Day 5 (i.e. after 4 units of 24h) the nematodes were harvested. Two ml of distilled water was poured on each Petri dish and gently stirred to release the nematodes from the surface. The surface washings containing suspended nematodes were collected in a standard volume of 20 ml of distilled water. The number of mature adults (male and female) and the second-generation juveniles (J1, J2, J3 and pre-adults) were counted using a dissecting microscope (x10 magnification, 4 fields) in 0.05 ml subsamples (x3) and multiplied up to the standard volume of 20 ml.
Mean number of A) Infective juveniles and B) Adults following inoculation of Petri dishes treated with EPL036 and EPL630 at 4 µL and 8 µL and an untreated control; Petri dishes were initially inoculated with 5 infective juveniles of Steinernema siamkayai following the method used in the main manuscript (Single way ANOVA presented beneath each data set).

Steinernema siamkayai [2] = assay: Steinernema siamkayai reproduction and development on lipid agar plates with hexapeptides; type: in vivo; set-up: key to Infective juveniles / Adults: counts per plate, scaled from 0.05 ml subsamples to 20 ml
Source text: as §1
Fig 2 Developmental impact on Steinernema siamkayai of hexapeptides after 4 days. INOCULUM = founding population of infective juveniles (IJs). ‘Infective juveniles’ on the vertical axis are mostly second-generation IJs. Peptides applied at the start of the study were EPL036 = IEPVFT, […] = KLKMNG. Total = Adults + Infective juveniles. Data are mean +/- SEM (average of 3 replicates). Statistical analysis: ANOVA. Control bars are doubly represented for ease of comparison. Note different vertical axes. […]

[3] = system: human marrow derived mesenchymal stem cells (hMSCs); assay: Peptide immobilisation studies, hMSC proliferation (CyQuant) and FACS; type: cell-based; details: alanine substitution study; for Mean cell number: N-terminally tethered, seeding 5,000 cells per well, CyQuant, mean +/− SEM, n = 3
Source text: Could the antiproliferative activity in vitro of EPL001 in solution be more predictably evoked and investigated more readily if the peptide is instead tethered to the cell culture’s substratum? […] In the first study EPL001 was immobilised by either its N terminus or C terminus and human stem cells exposed accordingly. This followed a confirmation of dissolved EPL001’s antiproliferative activity in the same laboratory (JAH). In the second study, aa sections of EPL001 were substituted with alanine strings prior to tethering, to define a functional biological motif. Into the base of each well of a 24-well plate was inserted a glass coverslip (13mm diameter, borosilicate glass, SLS, Nottingham, UK), upon the upper surface of which had been immobilised an individual peptide using a bioconjugate technique. During preparation of the coverslips, the surfaces were modified with carboxyl (−COOH) or amine (−NH2) groups separately using a published method. The carboxyl on the coverslips or at the end of the peptide sequence were reacted with NHS in the presence of EDC, resulting in a semi-stable NHS ester, which could then be reacted with primary amines (−NH2) on the coverslips or at the end of the peptide sequences to form amide crosslinks. For the carboxyl modified coverslips, the final peptide grafted on to the surface via its NH2 terminus was in the form Glass-CO-NH-Peptide. For the amine modified coverslips, the final peptide grafted on to the surface via its COOH terminus was in the form Glass-NH-CO-Peptide. The concentration of the peptides across the glass was approximately […]. Uncoated glass was used as the reference control. Treatments were in triplicate (i.e. n = 3). The cells used were human marrow derived mesenchymal stem cells (hMSCs, Lonza, Slough, UK, cat No PT-2507). In the EPL001-terminus study they were seeded at 10,000 cells per well; in the alanine substitution study the density was 5,000 cells per well. The cells were maintained in DMEM with 10% FSC. EPL001 and three alanine-substituted versions of it were deployed separately: MKPLTGKVKEFNNI (EPL001), AAAAAGKVKEFNNI (EPL590), MKPLTAAAAEFNNI (EPL545) and MKPLTGKVKEAAAA (EPL104). The peptides in the alanine substitution study were N-terminally tethered to the substrate. Cell numbers were measured by CyQuant® (Invitrogen, Paisley, UK). […] Statistical analysis was by ANOVA using SPSS software.
Four 14-aa peptides were synthesised: MKPLTGKVKEFNNI (EPL001), AAAAAGKVKEFNNI (EPL590), MKPLTAAAAEFNNI (EPL545) and MKPLTGKVKEAAAA (EPL104). The peptides were generated from l-isomer amino acids by solid phase peptide synthesis (Model 9050, Milligen). All peptides were N-terminally tethered to the substrate by a bioconjugate technique. MSCs were derived from human bone marrow and maintained in DMEM with 10% FSC. Cells were seeded on peptide treated surfaces including a glass control in a 24-well plate with cell density 5 x 10^3. The growth inhibitory activity was examined via cell proliferation assays and cell cycle analysis, using PI and Ki-67 staining. The cell phenotype and viability (7-AAD) were analysed by flow cytometry.

[4] = system: hDPSC (Human Dental Pulp Derived Mesenchymal-Like Stem/Progenitor Cells); set-up: method as in earlier work; details: EPL001 0.15µM or EPL140 15µM, three days; cited from earlier work
hMSCs = system: hMSCs; set-up: method as in earlier work; details: EPL001 0.15µM or EPL140 15µM, three days; cited from earlier work
PNT2 cells = assay: MTS colorimetric viable cell assay, PNT2; type: cell-based, human; details: 30 μM, 27h, 492 nm, triplicate
Experimental: (§2) Assays involving a range of peptides from 14mer down to 6mers assessed total viable PC3 or PNT2 cells using a 96-well plate MTS colorimetric assay (CellTiter 96 Aqueous One Solution Cell Proliferation Assay, Promega, Southampton, UK), with absorbance measured at 492 nm. Cells were seeded at 8,000 per well and grown for 27h. Peptides were administered at the outset to a final concentration of 30 μM (in 2 μl) to samples in triplicate. (A higher dosage was used than in the 14mer peptides study to shorten the timecourse of response.) Controls received buffer. Data are OD mean +/ − SEM, with statistical analysis by two tailed t-test. A time course study of the 14mers on PC3s, using the same technique, involved measurements at 24h and 48h.
(§3) Fig 5 Effects of a range of peptides on human prostate cancer cell growth in vitro. Assays involved a range of peptides from 14mers down to 6mers (Table 1), with viable cells assessed using a 96-well plate MTS colorimetric assay. Absorbance measured at 492 nm. Cells were seeded at 8,000 per well and grown for 27h. Peptides were administered at the outset to a final concentration of 30 μM (in 2 μl) to samples in triplicate. Controls received buffer. Data are OD mean +/- SEM, with statistical analysis by two tailed t-test. * p<0.05; **p<0.025.

PC3 cells = assay: MTS colorimetric viable cell assay, PC3; type: cell-based, human; details: PC3; 30 μM; 27h; MTS, 492 nm; triplicate
Experimental: as §2, §3

Caenorhabditis elegans = details: in words; cited from earlier work
Source text: As a control compound there was synthesized EPL030, having the aa sequence KLKMNGKNIEPVFT. This is a scrambling of EPL001’s sequence, based on cards drawn at random by one of us (CRM). […] The figures for fecundity were EPL001 +43 ... || Returning to EPL030, the scrambled-sequence EPL001 comparator, this has engendered perplexity by displaying the same activity as EPL001 across multiple mammalian systems. Thus, EPL030 suppressed human prostate cancer cells in vitro more than EPL001 in two laboratories and the proliferation of rat bone marrow cells in vitro in a third.

DU145 cells = assay: MTS viable cell assay, DU145 (Epistem); type: cell-based, human; details: in words
Experimental: Further assays on human prostate cancer cells were conducted at a contract research organisation (Epistem, Manchester, UK). LNCaP or DU145 cells seeded at 3,000 cells/well across a 96-well plate were cultured in RPMI (phenol red free), 10% FCS, 1% sodium pyruvate, Pen/strep and L-glutamine for 24h before exposure to peptides, at a single dose level in the case of LNCaPs or multiple dose levels in the case of DU145s. (For dose levels see Results.) Controls received vehicle (1% PBS). For the DU145s peptide administration was repeated after 24h. 72h after the first administration (DU145s) or only administration (LNCaP) total viable cell numbers were measured colorimetrically (MTS) using a CellTiter 96 AQueous One Solution Cell Proliferation Assay (Promega, Southampton, UK), following manufacturer’s instructions. Briefly, the media on the plates was replaced with the CellTiter reagent diluted 1:5 in DMEM. The plates were returned to the incubator for 3 hours before reading absorbance at 492 nm on a FLUORstar OPTIMA (BMG Labtech). CellTiter data are the absorbance minus background values (CellTiter plus DMEM), expressed as (OD mean +/− SEM). Statistical analysis was by ANOVA, Dunnett’s multiple comparisons test.

KLKMNG [EPL630, KLKMNG, EPL030 Front 6]
Adults (Steinernema siamkayai [1]; 4 µL, mean of 9 reps): 1.9 | Infective juveniles (Steinernema siamkayai [1]; 4 µL, mean of 9 reps): 10.1 | Adults (Steinernema siamkayai [1]; 4 µL, rep 1): 1 | Adults (Steinernema siamkayai [1]; 4 µL, rep 2): 1 | Adults (Steinernema siamkayai [1]; 4 µL, rep 3): 2 | Adults (Steinernema siamkayai [1]; 4 µL, rep 4): 2 | Adults (Steinernema siamkayai [1]; 4 µL, rep 5): 2 | Adults (Steinernema siamkayai [1]; 4 µL, rep 6): 3 | Adults (Steinernema siamkayai [1]; 4 µL, rep 7): 2 | Adults (Steinernema siamkayai [1]; 4 µL, rep 8): 2 | Adults (Steinernema siamkayai [1]; 4 µL, rep 9): 2 | Adults (Steinernema siamkayai [1]; 8 µL, rep 1): 4 | Adults (Steinernema siamkayai [1]; 8 µL, rep 2): 5 | Adults (Steinernema siamkayai [2]; S3 Table 2, 8 µL, inoculum 500, mean of 3 reps): 363 | Egg production in females (Steinernema siamkayai [2]; compared with untreated controls, 48h exposure (Fig 3)): markedly below that of controls | Adults as % of the population at termination (Steinernema siamkayai [2]; controls ~23%): 26–29% | Time after incubation to fully grown males and females (Steinernema siamkayai [2]; observational): 48 h | Time for infective juveniles to transform into pre-adults (Steinernema siamkayai [2]; observational): about 36 h

MKPLTGKVKEAAAA [EPL104, Substituted EPL001; alanines 11–14]
Mean cell number below that of EPL001-N ([3]; 14 days): 16% | Cell number vs Glass ([3]; Day 7): −29% | Cell number vs Glass ([3]; Day 14): −37% | Number of cells in the G0/G1 phase ([3]; FACS, PI, 86% for glass control): 90% | Mean cell number ([3]; Day 7): 10,010 +/−4,427 | Mean cell number ([3]; Day 14): 16,736 +/−1,302 | Ki67 staining, % of cells ([3]; at termination, control cells 26.95%): 12.69%

MLKTGEKPNKFNNI [EPL140, Variant of human model compound EPL141, with KF instead of FK]
Bmal1 expression [4]: ↑↑ | OCN expression [4]: ↓↓ | PPARγ expression [4]: ↓ | Per2 expression [4]: ↑↑ | Rev-ErbA expression [4]: ↓ | Sox9 expression [4]: (↑) | Bmal1 expression (hMSCs): ↑ | OCN expression (hMSCs): ↓ | PPARγ expression (hMSCs): ↓↓ | Per2 expression (hMSCs): ↓ | Rev-ErbA expression (hMSCs): ↓ | Sox9 expression (hMSCs): ↓↓

MKPLTAAAAEFNNI [EPL545, Substituted EPL001; alanines 6–9]
Cell number vs Glass ([3]; Day 7): −29% | Cell number vs Glass ([3]; Day 14): −32% | Mean cell number ([3]; Day 7): 10,007 +/−3,281 | Mean cell number ([3]; Day 14): 18,055 +/−1,771

MLKTGEKPV [EPL901, first 9 aa of EPL143, from sSgII’s second sorting domain]
Difference in percentage terms between control and test OD means (PNT2 cells): −28.9% | Difference in percentage terms between control and test OD means (PC3 cells): −21.2%

KLKNMGNKIEPVFT [EPL040, Scrambled EPL001 control]
Fecundity effect in C. elegans (Caenorhabditis elegans): anti-fecundity

MKPVFNNI [EPL801, EPL601 with all of the C-terminal triplet NNI from sSgII-70]
Cell inhibitory activity (DU145 cells): inactive
